Test results from US8940898B2, “Piperidinyl alkyne orexin receptor antagonists” (Merck Sharp & Dohme Corp., priority 2011, dated 2015).

Assays:
human orexin-2 receptor = molecular target: T1, human orexin-2 receptor (Homo sapiens, UniProt O43614); test: radioligand binding assay, OX2 receptor (hOX2 Bind hKi); conditions: membranes from CHO cells expressing the OX2 receptor
T1 construct: expressed in transfected cells; host or cells: CHO cells (membranes)
T1 sequence (O43614 1-444): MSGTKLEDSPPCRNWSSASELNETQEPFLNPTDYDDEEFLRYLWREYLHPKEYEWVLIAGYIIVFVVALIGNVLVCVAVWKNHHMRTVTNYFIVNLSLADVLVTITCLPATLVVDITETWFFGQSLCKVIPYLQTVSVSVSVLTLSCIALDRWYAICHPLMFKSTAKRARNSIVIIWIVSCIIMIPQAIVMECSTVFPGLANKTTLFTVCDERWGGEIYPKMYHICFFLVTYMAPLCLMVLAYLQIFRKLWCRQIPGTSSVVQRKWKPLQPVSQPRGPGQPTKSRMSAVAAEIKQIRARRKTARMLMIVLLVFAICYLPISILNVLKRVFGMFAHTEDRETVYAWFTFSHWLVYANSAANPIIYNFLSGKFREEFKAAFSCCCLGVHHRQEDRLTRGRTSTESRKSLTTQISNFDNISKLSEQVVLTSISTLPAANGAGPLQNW
Method: The utility of the compounds in accordance with the present invention as orexin receptor OX1R and/or OX2R antagonists may be readily determined without undue experimentation by methodology well known in the art, including the “FLIPR Ca^2+ Flux Assay” (Okumura et al., Biochem. Biophys. Res. Comm. 280:976-981, 2001). In a typical experiment the OX1 and OX2 receptor antagonistic activity of the compounds of the present invention was determined in accordance with the following experimental method. For intracellular calcium measurements, Chinese hamster ovary (CHO) cells expressing the rat orexin-1 receptor or the human orexin-2 receptor, are grown in Iscove's modified DMEM containing 2 mM L-glutamine, […], 1% hypoxanthine-thymidine supplement, 100 U/ml penicillin, 100 μg/ml streptomycin and 10% heat-inactivated fetal calf serum (FCS). The cells are seeded at 20,000 cells/well into Becton-Dickinson black 384-well clear bottom sterile plates coated with poly-D-lysine. All reagents were from GIBCO-Invitrogen Corp. The seeded plates are incubated overnight at 37° C. and 5% CO2. Ala-6,12 human orexin-A as the agonist is prepared as a 1 mM stock solution in 1% bovine serum albumin (BSA) and diluted in assay buffer (HBSS containing 20 mM HEPES, 0.1% BSA and 2.5 mM probenecid, pH7.4) for use in the assay at a final concentration of 70 pM. Test compounds are prepared as 10 mM stock solution in DMSO, then diluted in 384-well plates, first in DMSO, then assay buffer. On the day of the assay, cells are washed 3 times with 100 μl assay buffer and then incubated for 60 min (37° C., 5% CO2) in 60 μl assay buffer containing 1 μM Fluo-4AM ester, 0.02% pluronic acid, and 1% BSA. The dye loading solution is then aspirated and cells are washed 3 times with 100 μl assay buffer. 30 μl of that same buffer is left in each well. Within the Fluorescent Imaging Plate Reader (FLIPR, Molecular Devices), test compounds are added to the plate in a volume of 25 μl, incubated for 5 min and finally 25 μl of agonist is added. Fluorescence is measured for each well at 1 second intervals for 5 minutes and the height of each fluorescence peak is compared to the height of the fluorescence peak induced by […] Ala-6,12 orexin-A with buffer in place of antagonist. For each antagonist, IC50 value (the concentration of compound needed to inhibit 50% of the agonist response) is determined. Alternatively, compound potency can be assessed by a radioligand binding assay (described in Bergman et. al. Bioorg. Med. Chem. Lett. 2008, 18, 1425-1430) in which the inhibition constant (Ki) is determined in membranes prepared from CHO cells expressing either the OX1 or OX2 receptor. The intrinsic orexin receptor antagonist activity of a compound which may be used in the present invention may be determined by these assays. The following tables show representative data for the compounds of the Examples as orexin receptor antagonists as determined by the foregoing assays wherein the hOX2 Ki is a measure of the ability of the test compound to inhibit the action of the human orexin-2 receptor and the hOX1R is a measure of the ability of the test compound to inhibit the action of the rat orexin-1 receptor.

hOX1 (orexin-1 receptor) = molecular target: T2, hOX1 (orexin-1 receptor) (Homo sapiens, UniProt O43613); test: radioligand binding assay, OX1 receptor (hOX1 Bind hKi); conditions: membranes from CHO cells expressing the OX1 receptor
T2 construct: expressed in transfected cells; host or cells: CHO cells (membranes)
T2 sequence (O43613 1-425): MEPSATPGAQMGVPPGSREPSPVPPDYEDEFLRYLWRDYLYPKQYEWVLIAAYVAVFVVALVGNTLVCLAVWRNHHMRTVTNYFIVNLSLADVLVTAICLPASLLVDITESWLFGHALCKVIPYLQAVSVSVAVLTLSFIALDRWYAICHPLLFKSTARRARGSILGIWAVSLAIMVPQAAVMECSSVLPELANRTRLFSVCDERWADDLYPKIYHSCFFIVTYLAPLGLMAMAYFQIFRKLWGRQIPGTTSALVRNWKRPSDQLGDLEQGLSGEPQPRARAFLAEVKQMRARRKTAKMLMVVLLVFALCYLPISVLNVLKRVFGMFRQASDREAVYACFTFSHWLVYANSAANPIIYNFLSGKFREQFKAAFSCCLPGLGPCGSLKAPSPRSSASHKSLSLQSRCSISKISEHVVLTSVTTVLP

Structure (SMILES) | Ki (human orexin-2 receptor) | Ki (hOX1 (orexin-1 receptor))
Cc1ccc(-n2nccn2)c(C(=O)N2CCCCC2C#Cc2cnc3ccccc3c2)c1 (stereo not drawn) [Example 18, 3-[(1-{[5-methyl-2-(2H-1,2,3-triazol-2-yl)phenyl]carbonyl}piperidin-2-yl)ethynyl]quinoline] | > 4460 nM | > 476 nM
Cc1nc(C(=O)N2CCCCC2C#Cc2ccccc2)c(-c2ccccc2)s1 (stereo not drawn) [Example 20, (2-Methyl-5-phenyl-1,3-thiazol-4-yl) [2-(phenylethynyl)piperidin-1-yl]methanone] | > 1170 nM | 257 nM
Cc1ccc(-n2nccn2)c(C(=O)N2CCCCC2C#Cc2ccc(F)cc2)c1 (stereo not drawn) [Example 16, 2-[(4-fluorophenyl)ethynyl]-1-{[5-methyl-2-(2H-1,2,3-triazol-2-yl)phenyl]carbonyl}piperidine] | 160 nM | 248 nM
